System: HeLa cervical and MCF-7 breast adenocarcinomas
Test: In vitro growth inhibition (MTT)
Assay type: cell-based, human
Settings: HeLa and MCF-7
Description: This finding led to an exploration of the SAR analyses by synthesizing the first generation compounds 3 containing diverse substituents at different positions in the 2-aryl-2-(3-indolyl)acetohydroxamate skeleton and testing this series for in vitro growth inhibition using the MTT colorimetric assay against two cell lines, human HeLa cervical and MCF-7 breast adenocarcinomas (Table 1). It emerged from these experiments that the substitution on the benzene ring of the indole moiety (R^2≠H) was not tolerated (e.g., 3abfa and 3acfa), whereas the nitrogen could be derivatized (R^1≠H) with only a small activity drop (e.g., 3bafa vs 3aafa).
Antiproliferative properties of the synthesized compounds were evaluated by the MTT assay. All compounds were dissolved in DMSO at a concentration of either 100 mM or 50 mM prior to cell treatment. The cells were trypsinized and seeded at 4×10^3 cells per well into 96-well plates. The cells were grown for 24 h, treated with compounds at concentrations ranging from 0.001 to 100 μM and incubated for 48 h in 200 μL media. 20 μL of MTT reagent in serum free medium (5 mg/mL) was added to each well and incubated further for 2 h. Media was removed and the resulting formazan crystals were re-solubilized in 200 μL of DMSO. A490 was measured using a Molecular Devices Thermomax plate reader. The experiments were performed in quadruplicate and repeated at least twice for each compound per cell line. Cells treated with 0.1% DMSO were used as a negative control; 1 μM phenyl arsine oxide (PAO) was used as a positive control.

## O=C(NO)C(c1ccccc1)c1c(-c2ccc3ccccc3c2)[nH]c2ccccc12 (stereo not shown) [Compound 3aafa]
  antiproliferative potency (GI50): single-digit micromolar
